# From PubChem BioAssay AID2384 (Southern Research Specialized Biocontainment Screening …, 2010)
# Several values for one entry are separate records, joined by “and”; a condition that tells them apart may be missing. Equal entries are not always repeated.
# Tested on: S. typhi GFP reporter counter-screen, fluorescence, 4 h
# Assay: inhibitors in S. typhi counter-screen strain, dose response, counter-screen for PhoP regulon inhibitor project, fluorescence, 4 h (AID 2384)
row,SMILES,IC50
1,CNCCCCOc1ccc(C(C)(C)C)cc1Cl,58.2 µM
2,O=C(Cn1cncn1)N/N=C/c1ccccc1O,150 µM
3,CN(C)CCCN(C(=O)COc1ccccc1)c1nc2ccc(Cl)cc2s1,40.5 µM
4,Cc1c(Cl)cccc1Nc1nc(NCCO)c2ccccc2n1,40.1 µM
5,COC12C(COC(N)=O)C3=C(C(=O)C(C)=C(N)C3=O)N1CC1C2N1C (centres undefined),3.12 µM
6,NC[C@@H]1O[C@H](C23CC4CC(CC(C4)C2)C3)Cc2c1ccc(O)c2O,27 µM
7,CCCOc1ccc(C(=O)NNC(=S)NC(C)=O)cc1,39.2 µM
8,NCCCCCc1nnc(SCc2ccc(Cl)cc2Cl)o1,98.3 µM
9,CCCCC(=O)NNC(=S)NC(=O)CCC,92.6 µM
10,O=C(Nc1nnc(-c2ccco2)o1)c1cccc(Cl)c1,43.1 µM
11,COc1cc(/C=N/NC(=O)c2cncc(Br)c2)cc([N+](=O)[O-])c1O,19.1 µM
12,Cc1c(CCOC(=O)C2C3CC4CC(C3)CC2C4)sc[n+]1CC(=O)c1ccc(Br)cc1 (centres undefined),25.7 µM
13,CCCCc1ccc(N/C(N)=N/c2nc(C)cc(C)n2)cc1,52.3 µM
14,O=C(CC(=O)c1cc(Cl)ccc1O)c1ccccc1,26.8 µM
15,C/C=C/c1ccc(OCc2cc(=O)n3cc(C)ccc3n2)c(OC)c1,74.7 µM
16,Cc1[nH]c2ccc(OC(F)(F)F)cc2c1CCNCc1ccc(Cl)cc1,20.5 µM
17,O=C(N/N=C/C1CC=CCC1)c1cc(Br)ccc1O (centres undefined),123 µM
18,COc1cc(/C=C2/C(=O)NN(c3ccc(F)cc3)C2=O)cc([N+](=O)[O-])c1O,62.6 µM
19,Oc1ccc(CN2CCN(Cc3ccccc3)CC2)c2cccnc12,25.7 µM
20,COc1cc([N+](=O)[O-])cc(/C=N/NC(=O)C(O)(c2ccccc2)c2ccccc2)c1O,80 µM
21,COc1ccc(Cl)cc1C(=O)C1CCCN(CCO)C1 (centres undefined),56.2 µM
22,CN1CCN(c2c(F)cc3c(=O)c(C(=O)O)cn4c3c2OCN4C)CC1,< 0.55 µM
23,COc1ccc(Nc2c3ccccc3nc3ccccc23)cc1,23.7 µM
24,C=C1c2c(Cl)ccc(O)c2C(O)=C2C(=O)[C@]3(O)C(O)=C(C(N)=O)C(=O)[C@@H](N(C)C)[C@@H]3[C@@H](O)C12 (some centres undefined),0.24 µM

row,SMILES,IC50
1,N#C/C(=N\Nc1ccc([N+](=O)[O-])cc1)C(N)=S,108 µM
2,Cc1ccc(NNS(=O)(=O)c2ccc(C)cc2)cc1,111 µM
3,Cc1nnc(N/N=C/c2ccccn2)[nH]c1=O,31.4 µM
4,Cc1c(N=Cc2cc(Br)cc(Br)c2O)cccc1C(=O)O,39.5 µM
5,O=C(Nc1nccs1)c1ccc(Cl)cc1[N+](=O)[O-],97.6 µM
6,CN(C)CCCN1c2ccccc2Sc2ccc(Cl)cc21,34.3 µM and 31.8 µM
7,CN1CCN(C2Cc3cc(F)ccc3Sc3ccc(Cl)cc32)CC1 (centres undefined),34.6 µM
8,CCn1cc(C(=O)O)c(=O)c2cc(F)c(N3CCN(C(=S)NC(=O)c4cc(OC)cc(OC)c4)CC3)cc21,143 µM
9,O=C1c2c(O)ccc(O)c2C(=O)c2c(NCCNCCO)ccc(NCCNCCO)c21,86.5 µM
10,CCCCCCCCCCOC(=O)Cn1c(COc2ccc(OC)cc2)[n+](C)c2ccccc21,12.1 µM and 10 µM
11,Clc1ccc(CNCc2cccs2)cc1Cl,45.4 µM
12,CC(Nc1nc(N2CCCC2)nc2ccccc12)c1ccccc1 (centres undefined),76 µM
13,CCc1ccc(N2CC(C(=O)N/N=C/c3cc([N+](=O)[O-])ccc3O)CC2=O)cc1 (centres undefined),48.7 µM
14,CN(C)c1nnnn1-c1ccc(Oc2ccccc2)cc1,0.27 µM
15,CCN1CCN(Cc2ccc(NC(=O)c3ccc(C)c(NC(=O)c4c[nH]c5cc(C(F)(F)F)ccc5c4=O)c3)cc2C(F)(F)F)CC1,34.9 µM
16,O=C(N/N=C/c1cc([N+](=O)[O-])ccc1O)c1cccc2cc[nH]c12,18.5 µM
17,Cc1oc2c(O)c(O)ccc2c(=O)c1-c1ccccc1,100 µM
18,c1ccc(-c2nc3ccccc3[nH]2)cc1,93.5 µM
19,O=c1[nH][nH]c(-c2ccccc2O)c1C(C[N+](=O)[O-])c1ccc(Br)cc1 (centres undefined),63 µM
20,Cc1cc(NC(=O)c2ccccc2)sc1C,79.8 µM
21,COc1ccc(CNc2ncnc3c2[nH]c2ccccc23)cc1,150 µM
22,CCn1cc(C(=O)O)c(=O)c2cc3c(cc21)OCO3,80.8 µM
23,COc1cccc(NC2=NC3(CCCCC3)N=C(N)N2)c1,148 µM
24,O=C(Nc1nc(-c2ccccn2)cs1)c1ccc(Cl)s1,21.3 µM

row,SMILES,IC50
1,O=C(CCN1CCOCC1)N/N=C/c1cc(Br)cc(Br)c1O,27.3 µM
2,NC1=NC2=C(CCCC2)C2(CCCCC2)S1,63.8 µM
3,O=C(O)c1cc2c(cn1)[nH]c1ccccc12,92.6 µM
4,Cn1ncnc2c(=O)n(C)c(=O)nc1-2,2.53 µM
5,c1ccc(Nc2nc(NCC3CCCO3)c3ccccc3n2)cc1 (centres undefined),26 µM
6,CC(C(=O)NC1C=CS(=O)(=O)C1)N1C(=O)/C(=C/c2ccc(Cl)cc2)SC1=S (centres undefined),30.3 µM
7,CN(C)CCCN(C(=O)c1ccc2c(c1)CCCC2)c1nc2ccc(Cl)cc2s1,54.1 µM
8,Brc1ccc2c(c1)C(OC1CN3CCC1CC3)c1ccccc1CS2 (centres undefined),31.8 µM
9,CCCCCCCCCCCCCCCC[n+]1ccc(/C=N/O)cc1,36.9 µM
10,C[C@H]1c2cccc(O)c2C(O)=C2C(=O)[C@]3(O)C(O)=C(C(N)=O)C(=O)[C@@H](N(C)C)[C@@H]3[C@@H](O)[C@@H]21,1.56 µM
11,O=C(O)/C(=C\C(=O)c1ccccc1)Nc1ccccc1,103 µM
12,O=C(/C=C/c1ccccc1)NC(=S)NNC(=O)c1cnccn1,20.9 µM
13,CCc1ccc2c(c1)Sc1ccccc1CC2N1CCN(C)CC1 (centres undefined),31.3 µM
14,CCN1/C(=C/C=C/C=C/c2sc3ccccc3[n+]2CC)Sc2ccccc21,9.68 µM
15,COc1ccc(C2NCCc3c2[nH]c2ccccc32)cc1COc1ccc(F)cc1 (centres undefined),35.1 µM
16,O=C(N/N=C/c1c(O)ccc2ccccc12)c1ccc(CO)nc1,81.7 µM
17,O=C(/C=C/c1cccs1)NC(=S)NNC(=O)c1ccccc1O,26.1 µM
18,N=c1n(CCN2CCCCC2)c2ccccc2n1CC(O)c1ccc(Cl)c(Cl)c1 (centres undefined),19.8 µM
19,O=C(/C=C/c1cc(Br)ccc1O)c1ccco1,52.5 µM
20,Fc1ccc(Nc2nc(NCc3ccco3)c3ccccc3n2)cc1,20.7 µM
21,Cc1cc(C)n(/N=C/c2cc([N+](=O)[O-])ccc2O)c(=O)c1,39.5 µM
22,COc1ccc2nc(N(CCN(C)C)C(=O)/C=C/c3cccs3)sc2c1,65.8 µM
23,Cc1occc1C(=O)N/N=C/C=C/c1ccccc1,97.1 µM
24,CCCNC(=O)c1cn(CC)c2cc(N3CCN(C)CC3)c(F)cc2c1=O,30.6 µM

row,SMILES,IC50
1,CN1CCc2c(sc(NC(=O)c3ccc([N+](=O)[O-])o3)c2C(N)=O)C1,17.1 µM
2,Cc1ccc(C(C[N+](=O)[O-])n2nc(C)cc2C)cc1 (centres undefined),27.1 µM
3,CCCCC(CC)CN=C(N)NC(N)=NCCCCCCN=C(N)NC(N)=NCC(CC)CCCC (centres undefined),4.65 µM
4,Cc1ccc(S(=O)(=O)CCC(=O)c2ccc(O)cc2O)cc1,57.5 µM
5,Oc1cc(Cl)ccc1Oc1ccc(Cl)cc1Cl,< 0.55 µM
6,CCCCOc1ccc(C(=O)NNC(=S)NC(=O)CC)cc1,33.6 µM
7,CN1CCN(CC(=O)N2CCn3c4c(c5cc(C6CCCCC6)ccc53)CCCC42)CC1 (centres undefined),36.9 µM
8,CCN(CC)CCn1c(=N)n(CC(O)COc2cccc(C)c2)c2ccccc21 (centres undefined),23.3 µM
9,OCCNc1nc(Nc2ccc(Br)cc2)nc2ccccc12,15.9 µM
10,O=C(/C=C/c1ccc(F)cc1)NC(=S)NNC(=O)c1cnccn1,19 µM
11,c1ccc2c(c1)C(=NC1CCCCC1)NC2=NC1CCCCC1,77.2 µM
12,CC(C)Oc1ccc(Cc2cnc(N)nc2N)cc1,33.3 µM
13,Cc1cc(NC(=O)c2ccc3[nH]c(C)c(C)c3c2)ccn1,65.5 µM
14,O=[N+]([O-])c1cc([N+](=O)[O-])c2cccnc2c1Oc1ccccc1O,41.7 µM
15,Fc1ccccc1CCNCc1ccccc1,34.4 µM
16,O=C(N/N=C/c1cc(Br)ccc1O)c1ccccc1Cl,112 µM
17,O=C(NC1CCCCC1)c1ccc([N+](=O)[O-])o1,119 µM
18,Clc1ccc(C(c2ccccc2)N2CCNCC2)cc1 (centres undefined),97.5 µM
19,O=C(Nc1ccccc1)Nc1nccs1,96 µM
20,CCCCCCCCCCOC(=O)Cn1c(COc2cccc(OC)c2)[n+](C)c2ccccc21,10.2 µM
21,Cc1ccc(Nc2cc(C)nn2-c2nc(C)cc(=O)[nH]2)cc1,11.2 µM
22,Cc1nc2c(=O)n(C)c(=O)nc-2n(C)n1,2.32 µM
23,Cc1ccc(NC(=O)c2ccc([N+](=O)[O-])o2)c(C)c1,67.9 µM
24,CC(NCc1ccc(Cl)cc1)C(O)c1ccccc1 (centres undefined),42.8 µM

row,SMILES,IC50
1,COc1ccc(Nc2cc(C)c3c(O)cccc3n2)cc1,24.9 µM
2,c1cc2c(cc1C1CCCCC1)c1c3n2CCCNC3CCC1 (centres undefined),20.3 µM
3,Oc1ccc(C[C@@H]2CNCCN2CCCCC2CCCCC2)cc1,37.5 µM
4,CCSc1ccc2c(c1)N(CCCN1CCN(C)CC1)c1ccccc1S2,71.2 µM
5,Cc1ccc(NC(=O)COc2ccccc2CNC(C)(C)CC(C)(C)C)cc1,82.5 µM
6,Fc1cccc(Nc2c3c(nc4ccccc24)CCC3)c1,76.6 µM
7,CC1COc2c(N3CCN(C)CC3)c(F)cc3c(=O)c(C(=O)O)cn1c23 (centres undefined),1.73 µM
8,CCOc1cc(Br)cc(/C=N/NC(=O)c2cccnc2)c1O,126 µM
9,Cc1ccc(OCC(=O)N/N=C/c2ccc([N+](=O)[O-])o2)cc1,28.1 µM
10,O=C(c1cccs1)c1no[n+]([O-])c1C(=O)c1cccs1,39.8 µM
11,OC1(c2ccc(Cl)cc2)CCN(Cc2c[nH]c3ccccc23)CC1,29.8 µM
12,O=C(NCCCN1CCN(c2ccc(F)cc2)CC1)Nc1ccc([N+](=O)[O-])cc1,74.7 µM
13,Cn1c(CN2CCCC2)nc2cc(NC(=O)COc3ccc(Cl)cc3)ccc21,128 µM
14,Cc1ccc(C)c(NC(=O)c2ccccc2O)c1,58.1 µM
15,COc1ccc(CNCCc2ccc(Cl)cc2)cc1OCc1ccccc1,69.3 µM
16,CN(C)CCCn1c(SCC(=O)N2c3ccccc3Sc3ccccc32)nc2ccccc2c1=O,47.2 µM
17,O=C(O)c1cn(C2CC2)c2cc(N3CCN(S(=O)(=O)c4ccc5c(c4)OCCO5)CC3)c(F)cc2c1=O,15.9 µM
18,O=C(Nc1ccncc1)Nc1ccc(Cl)cc1,85.2 µM
19,O=[N+]([O-])c1cc(Cl)c2cccnc2c1O,4.25 µM
20,CCCCn1c(=N)n(CC(=O)c2ccc(Br)s2)c2ccccc21,45.1 µM
21,C/C(=N\NC(=O)c1cccc(Br)c1)c1ccccn1,31.6 µM
22,Clc1c(OCCCn2ccnc2)ccc2ccccc12,76.6 µM
23,C#CCOCCOCCOCCNc1nc(N2CCN(C(=O)C(Cc3cc4ccccc4[nH]3)n3cc(C(N)C(C)CC)nn3)CC2)nc(N2CCN(C(=O)C(Cc3cc4ccccc4[nH]3)n3cc(C(N)C(C)CC)nn3)CC2)n1 (centres undefined),134 µM
